Data taken from article PMC7721589, “Synthesis and structure-activity relationships for tetrahydroisoquinoline-based inhibitors of Mycobacterium tuberculosis” (Bioorganic & Medicinal Chemistry, 2020).
Converted amounts (≈) assume the structure as drawn.

Key:
[1] = target: M. smegmatis ATP synthase (Mycolicibacterium smegmatis, UniProt A0R205+A0R206); assay: Inhibition of mycobacterial ATP synthase; type: biochemical; details: M. smegmatis ATP synthase
[2] = target: human mitochondrial ATP synthase (Homo sapiens, UniProt P00846+P05496); assay: Inhibition of human mitochondrial ATP synthase; type: biochemical
[3] = Stability in CDCl3 solution; type: physicochemical; details: over 1–2 days
Excerpt: Note: The X = OMe compounds 8 and 9 were unstable in CDCl3 solution over 1–2 days.

[4] = Microsomal clearance in human liver microsomes; further: unit not given here
[5] = tested on: M.tb strain H37Rv; assay: MIC against M.tb H37Rv under aerobic (replicating; MABA) conditions; type: cell-based, Mycobacterium tuberculosis; details: MIC90, Table 1
[6] = tested on: M.tb strain H37Rv; assay: MIC against M.tb H37Rv under non-replicating (LORA) conditions; details: MIC90, Table 1
[7] = Microsomal clearance in mouse liver microsomes; further: unit not given here
[8] = tested on: Vero green monkey-derived epithelial kidney cells; assay: Mammalian cytotoxicity in Vero cells; type: cell-based; details: Table 1

Chain of human mitochondrial ATP synthase (P05496 62-136): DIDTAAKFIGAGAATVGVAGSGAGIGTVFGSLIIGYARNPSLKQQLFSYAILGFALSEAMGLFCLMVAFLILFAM
Chain of human mitochondrial ATP synthase (P00846 whole entry): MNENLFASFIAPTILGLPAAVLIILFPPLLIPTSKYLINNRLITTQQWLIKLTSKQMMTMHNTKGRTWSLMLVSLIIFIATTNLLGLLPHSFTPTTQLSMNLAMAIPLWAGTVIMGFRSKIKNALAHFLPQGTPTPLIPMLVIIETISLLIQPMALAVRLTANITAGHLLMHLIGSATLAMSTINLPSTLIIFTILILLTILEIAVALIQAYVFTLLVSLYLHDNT
Chain of human mitochondrial ATP synthase (P06576 48-529, further chain): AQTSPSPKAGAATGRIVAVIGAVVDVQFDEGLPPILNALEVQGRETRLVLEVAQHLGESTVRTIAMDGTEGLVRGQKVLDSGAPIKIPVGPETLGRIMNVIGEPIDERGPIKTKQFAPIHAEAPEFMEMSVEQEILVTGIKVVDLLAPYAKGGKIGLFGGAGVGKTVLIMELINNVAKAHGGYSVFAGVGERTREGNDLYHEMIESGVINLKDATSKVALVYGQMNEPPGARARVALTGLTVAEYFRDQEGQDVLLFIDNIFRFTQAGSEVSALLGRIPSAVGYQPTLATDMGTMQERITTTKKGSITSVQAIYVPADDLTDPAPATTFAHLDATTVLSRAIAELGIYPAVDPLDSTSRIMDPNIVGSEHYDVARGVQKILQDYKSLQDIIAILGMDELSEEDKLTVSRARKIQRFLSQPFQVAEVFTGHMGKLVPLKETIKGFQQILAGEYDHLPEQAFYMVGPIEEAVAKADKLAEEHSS
Chain of human mitochondrial ATP synthase (P25705 44-553, further chain): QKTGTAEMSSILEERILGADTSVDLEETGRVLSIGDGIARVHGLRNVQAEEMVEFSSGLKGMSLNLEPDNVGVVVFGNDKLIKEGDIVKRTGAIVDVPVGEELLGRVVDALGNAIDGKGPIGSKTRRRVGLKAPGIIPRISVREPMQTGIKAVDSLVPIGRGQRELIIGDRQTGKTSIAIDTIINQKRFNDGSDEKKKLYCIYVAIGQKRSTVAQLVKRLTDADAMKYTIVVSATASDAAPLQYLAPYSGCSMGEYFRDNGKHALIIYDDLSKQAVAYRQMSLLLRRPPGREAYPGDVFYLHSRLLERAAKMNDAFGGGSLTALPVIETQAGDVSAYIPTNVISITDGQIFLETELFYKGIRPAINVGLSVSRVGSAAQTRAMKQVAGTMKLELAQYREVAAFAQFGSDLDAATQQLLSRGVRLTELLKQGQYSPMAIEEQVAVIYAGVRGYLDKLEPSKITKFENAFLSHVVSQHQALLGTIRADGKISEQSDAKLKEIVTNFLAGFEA
Chain of human mitochondrial ATP synthase (P30049 23-168, further chain): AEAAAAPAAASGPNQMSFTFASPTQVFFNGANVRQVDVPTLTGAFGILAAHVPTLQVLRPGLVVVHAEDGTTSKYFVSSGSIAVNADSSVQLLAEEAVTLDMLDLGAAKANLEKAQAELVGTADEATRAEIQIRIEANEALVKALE
Chain of human mitochondrial ATP synthase (P36542 26-298, further chain): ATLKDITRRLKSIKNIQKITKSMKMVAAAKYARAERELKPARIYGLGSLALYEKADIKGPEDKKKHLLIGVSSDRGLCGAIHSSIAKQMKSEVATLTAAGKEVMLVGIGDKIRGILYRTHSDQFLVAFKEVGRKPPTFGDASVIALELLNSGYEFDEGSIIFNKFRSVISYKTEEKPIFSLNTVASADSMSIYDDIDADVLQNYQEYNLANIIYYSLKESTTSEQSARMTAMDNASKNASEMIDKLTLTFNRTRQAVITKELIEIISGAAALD

Compound | M. smeg ATPsynth IC50 [1] [µg/mL] | Mamm. ATPsynth IC50 [2] [µg/mL] | stability in CDCl3 solution [3] | HLM Clint [4] | MIC MABA [5] [µg/mL] | MIC LORA [6] [µg/mL] | MLM Clint [7] | IC50 VERO [8] [µg/mL]
COc1ccc(N2CCN(C)CC2)c2c1CCN(C(=O)Nc1ccc(-c3ccc(Cl)cc3C)cn1)C2 [Compound 8, N-(5-(4-Chloro-2-methylphenyl)pyridin-2-yl)-5-methoxy-8-(4-methylpiperazin-1-yl)-3,4-dihydroisoquinoline-2(1H)-carboxamide] | 4.2 | 16 | unstable | 17 | 1.9 (≈ 3.75 µM) | 3.6 (≈ 7.11 µM) | 42 | 12 (≈ 23.7 µM)
N-(5-(4-chloro-2-methylphenyl)pyridin-2-yl)-5-methyl-8-(4-methylpiperazin-1-yl)-3,4-dihydroisoquinoline-2(1H)-carboxamide [Compound 6] | 5.5 | 23 |  | 22 | 1.9 | 2.4 | 35 | 22
